Assay results from patent US11426420B2, “Inhibitors of short-chain dehydrogenase activity for treating coronary disorders” (CASE WESTERN RESERVE UNIVERSITY, priority 2017, dated 2022).

Legend:
[1] = test system: doxorubicin induced cardiomyopathy; assay: doxorubicin induced cardiomyopathy in mice, 2 consecutive cycles of doxorubicin (Set B); assay type: in vivo
[2] = target: T1, cardiac 15-PGDH (Mus musculus, UniProt Q8VCC1); assay: cardiac 15-PGDH activity and cardiac PGE2 after oral dosing of mice; assay type: in vivo
T1 construct: from tissue; host or cells: mouse heart (male C57bl6J mice are named for the study design)
T1 sequence (Q8VCC1 1-269): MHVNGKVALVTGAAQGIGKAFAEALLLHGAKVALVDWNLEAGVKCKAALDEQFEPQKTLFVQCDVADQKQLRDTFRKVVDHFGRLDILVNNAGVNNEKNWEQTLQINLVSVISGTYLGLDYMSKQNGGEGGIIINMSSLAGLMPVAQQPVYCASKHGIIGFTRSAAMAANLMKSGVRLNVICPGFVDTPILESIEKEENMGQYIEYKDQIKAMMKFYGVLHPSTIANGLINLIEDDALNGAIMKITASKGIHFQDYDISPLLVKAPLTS

[3] = test system: doxorubicin induced cardiomyopathy; assay: doxorubicin induced cardiomyopathy in mice, one cycle (Set A), echocardiography; assay type: in vivo, male C57bl6J mice
Protocol: FIG. 1 illustrates schematically the design of a study in which male C57bl6J mice received 15 mpk cumulative dose of doxorubicin in 7 doses of 2.15 mpk administered daily over study days 1-7. A 15-PGDH inhibitor, (+) SW033291, was administered by oral gavage at a dose of 25 mpk twice daily over study days 1-14, as a solution in a vehicle of 10% ethanol and 90% soybean oil. Cardiac ejection fraction was determined by echocardiography on study days 14 and 28.
FIG. 2 illustrates a graph showing cardiac ejection fraction at study day 1, at the start of the experiment, at study day 14 and at study day 28. Black bars show measurement in control mice receiving either oral saline or oral vehicle. Blue bars show results in doxorubicin treated mice receiving oral vehicle. Red bars show results in doxorubicin treated mice also receiving (+) SW033291. Doxorubicin treated mice receiving oral vehicle (blue bars) show a 10% decrease in ejection fraction on day 14 and day 28 as compared to non-doxorubicin treated control mice receiving vehicle only for 14 days. In contrast, mice treated with both doxorubicin and (+) SW033291 only a 2% (day 14) or 1.5% (day 28) decrease in ejection fraction. The difference in ejection fraction in doxorubicin treated mice receiving or not receiving (+) SW033291 was statiscally significant (P<0.05) on both days 14 and 28.

[4] = test system: cardiac myocytes; assay: DNA damage in cardiac myocytes, gamma-H2AX immunostaining; assay type: in vivo; conditions: doxorubicin treated mice
[5] = test system: PGE2 production by cell lines; assay: PGE2 production by cell lines; assay type: cell-based
[6] = stability on incubation with hepatocyte cell lines; assay type: in vitro ADME
[7] = test system: mice; assay: toxicity after IP injection into mice
[8] = chemical stability in aqueous solutions; assay type: physicochemical; conditions: over broad pH range
[9] = stability on incubation with hepatocyte extracts; assay type: in vitro ADME
[10] = stability on incubation with human liver extracts; assay type: in vitro ADME
[11] = target: T2, recombinant 15-PGDH (Homo sapiens, UniProt P15428); assay: inhibition of recombinant 15-PGDH; assay type: biochemical
T2 sequence (P15428 1-266): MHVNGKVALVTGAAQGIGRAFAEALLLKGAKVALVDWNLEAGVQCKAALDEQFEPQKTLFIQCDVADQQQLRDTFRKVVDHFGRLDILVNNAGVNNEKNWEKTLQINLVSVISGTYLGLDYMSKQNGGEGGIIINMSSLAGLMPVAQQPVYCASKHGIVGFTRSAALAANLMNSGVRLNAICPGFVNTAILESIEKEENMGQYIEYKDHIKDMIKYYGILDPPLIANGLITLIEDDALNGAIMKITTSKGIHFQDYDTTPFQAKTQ

[12] = stability on incubation with mouse liver extracts; assay type: in vitro ADME
[13] = stability on incubation with rat liver extracts; assay type: in vitro ADME
[14] = day 42, after two cycles of doxorubicin, versus vehicle control

**Q.** For `CCCC[S+]([O-])c1sc2nc(-c3cccs3)cc(-c3ccccc3)c2c1N` (single isomer, unassigned; (+)) [(+) SW033291], which ejection fraction ([1]; day 14, following the first cycle of doxorubicin) is on record?
**A.** The ejection fraction was “improvement of ejection fraction”.

**Q.** And the “atrial natriuretic factor, real-time PCR in cardiac tissue” value [1, 14]?
**A.** Its value is “lower levels of atrial natriuretic factor”.

**Q.** What about the “expression of connective tissue growth factor, real-time PCR in cardiac tissue” value [1, 14] of the same molecule?
**A.** The value was “lower levels of expression of connective tissue growth factor”.

**Q.** What about the lung weight [1, 14] of the same molecule?
**A.** Its lung weight is “lesser lung weight”.

**Q.** What about the ventricular weight [1, 14] of the same molecule?
**A.** The ventricular weight was “lesser ventricular weight”.

**Q.** What about the total body weight ([1]; day 42, after two cycles of doxorubicin, versus vehicle treated mice) of the same molecule?
**A.** Its total body weight is “greater total body weight”.

**Q.** And the ejection fraction ([1]; day 42, following the second cycle of doxorubicin)?
**A.** The ejection fraction was “improvement of ejection fraction”.

**Q.** And the “inhibition of activity of cardiac 15-PGDH” value ([2]; 25 mpk oral, starting at 30 minutes, persisting for 3 hours after administration)?
**A.** Its value is “approximately 80%”.

**Q.** What about the “cardiac PGE2” value ([2]; 6 hours after drug treatment) of the same molecule?
**A.** Its value is “increased cardiac PGE2”.

**Q.** What about the “ejection fraction (EF %), extended follow-up” value ([3]; Set A, follow-up to day 56) of the same molecule?
**A.** The value was “maintenance of improvement in ejection fraction”.

**Q.** What about the “decrease in ejection fraction” value ([3]; day 14, doxorubicin treated mice, 25 mpk oral gavage twice daily days 1-14) of the same molecule?
**A.** The value was 2%.

**Q.** And the “decrease in ejection fraction” value ([3]; day 28, doxorubicin treated mice, 25 mpk oral gavage twice daily days 1-14)?
**A.** Its value is 1.5%.

**Q.** And the “prevention of doxorubicin induced cardiomyopathy” value ([3]; mice)?
**A.** Its value is “prevented doxorubicin induced cardiomyopathy”.

**Q.** What about the “cardiac contractility, echocardiogram” value ([3]; study day 14, doxorubicin treated mice, versus oral vehicle) of the same molecule?
**A.** The value was “markedly greater cardiac contractility”.

**Q.** Which results are given for `COc1cccc2c1C(=O)c1c(O)c3c(c(O)c1C2=O)C[C@@](O)(C(=O)CO)C[C@@H]3O[C@H]1C[C@H](N)[C@H](O)[C@H](C)O1` [doxorubicin, reference compound]?
**A.** decrease in ejection fraction ([3]; day 14, doxorubicin 15 mpk cumulative plus oral vehicle, compared to non-doxorubicin treated control mice): 10%; decrease in ejection fraction ([3]; day 28, doxorubicin 15 mpk cumulative plus oral vehicle, compared to non-doxorubicin treated control mice): 10%; DNA damage in cardiac myocytes, gamma-H2AX immunostaining [4]: induction of DNA damage

**Q.** With `CCCC[S+]([O-])c1sc2nc(-c3cccs3)cc(-c3ccccc3)c2c1N` (stereo not shown) [formula (IX)] as the molecule, how does the “PGE2 production by cell lines” value [5] read?
**A.** Its value is “increase PGE2 production”.

**Q.** What about the “chemical stability when incubated with hepatocyte cell lines” value [6] of the same molecule?
**A.** The value was “chemically stable”.

**Q.** What about the toxicity ([7]; IP into mice at 0.3 μmole/per mouse twice daily for 21 days) of the same molecule?
**A.** The toxicity was “no toxicity”.

**Q.** And the “immediate toxicity over 24 hours” value ([7]; IP into mice at 0.6 μmole/per mouse)?
**A.** Its value is “no immediate toxicity”.

**Q.** What about the “immediate toxicity over 24 hours” value ([7]; IP into mice at 1.2 μmole/per mouse) of the same molecule?
**A.** Its value is “no immediate toxicity”.

**Q.** And the “chemical stability in aqueous solutions” value [8]?
**A.** Its value is “chemically stable”.

**Q.** What about the “chemical stability when incubated with hepatocyte extracts” value [9] of the same molecule?
**A.** The value was “chemically stable”.

**Q.** With `CCCC[S+]([O-])c1sc2nc(-c3nccs3)cc(-c3cnc(C)n3C)c2c1N` (stereo not shown) [formula (X)] as the molecule, how does the “chemical stability when incubated with liver extracts” value [10] read?
**A.** Its value is “chemically stable”.

**Q.** What about the “concentration at which recombinant 15-PGDH is inhibited” value [11] of the same molecule?
**A.** The value was 3 nM.

**Q.** And the “concentration at which PGE2 production by cell lines is increased” value [5]?
**A.** The value was 20 nM.

**Q.** What about the “chemical stability when incubated with liver extracts” value [12] of the same molecule?
**A.** The value was “chemically stable”.

**Q.** What about the “chemical stability when incubated with liver extracts” value [13] of the same molecule?
**A.** Its value is “chemically stable”.

**Q.** What about the “immediate toxicity over 24 hours” value ([7]; IP into mice at 50 mg/kg body weight) of the same molecule?
**A.** Its value is “no immediate toxicity”.

**Q.** And the “chemical stability in aqueous solutions” value [8]?
**A.** The value was “chemically stable”.
